Results published in patent US10111822B2, “External dermal composition for anti-ageing and method for producing the same” (Hayashibara Co., Ltd., priority 2012, dated 2018).

What was measured:
glutathione = assay: Production level of glutathione in NHEK cells; format: cell-based, human; conditions: 24 h, control = 100%
Experimental: Continuously-cultivated NHEK cells in EpiLife medium were collected, resuspended in EpiLife medium, inoculated to culture plates with 10 cm in diameter in an amount of 1×10^6 cells/10 mL/plate, and cultured for 24 hours. Thereafter, each culture supernatant was removed by sucking, and any of the test solutions was added to the remaining cells in a volume of 10 mL/plate, followed by culturing the cells for another 24 hours. As a control, cells were added with only D-MEM medium in an amount of 10 mL/plate and cultured for 24 hours. Each culture supernatant was removed from each plate, then ice-chilled Dulbecco's PBS (−), commercialized by Nissui Pharmaceutical Co., Ltd., Tokyo, Japan, was added to rinse the remaining cells, which were then collected with a scraper. Glutathione was quantified on “Glutathione Assay Kit”, a product name of glutathione assay kit commercialzied by BioVision, Inc., San Francisco, USA. In this experiment, the control and test solutions in respective three plates were assayed for glutathione production level for each plate and averaged for obtaining the glutathione production level of each solution. A 5% v/v CO2 incubator was used for culturing NHEK cells in any case. Relative values of test samples were determined with the proviso that the production levels of reduced glutathione and total glutathione in NHEK cells that had been cultured with only EpiLife medium were respectively regarded as 100%, and the results are in Table 5.

NHEK cells = assay: Proliferation of NHEK cells (methylene blue staining); format: cell-based, human; conditions: 4 days
Excerpt: Normal human epidermal keratinocytes from neonatal foreskin (commercialized by Kurabo Industries Ltd., Osaka, Japan, and abbreviated as “NHEK cells”, hereinafter) were suspended in EpiLife medium (commercialized by Invitrogen Corporation, Calif., USA) supplemented with a cell-growth supplement (EDGS: EpiLife Defined Growth Supplement) (EpiLife medium supplemented with EDGS is abbreviated as “EpiLife medium”, hereinafter), and subjected to passage cultures at a confluent density of 60 to 80% under a 5% v/v CO2 condition and at 37° C. The proliferated cells were detached from culture vessels, suspended in HuMedia-KB2 medium (commercialized by Kurabo Industries Ltd., Osaka, Japan) to give a cell density of 7.5×10^3 cells/mL, inoculated to 24-well plates coated with collagen (“Cell matrix Type IV”, a product name of Nitta Gelatin Inc., Osaka, Japan) in a volume of 0.4 mL/well, and cultured for one day under a 5% v/v CO2 condition and at 37° C. […] Then, the resulting cells were washed with distilled water and admixed with 0.33 N hydrochloric acid in a volume of 0.5 mL/well to extract the dye (methylene blue), followed by transferring the resulting extract to 96-well plates in a volume of 0.1 mL/well for measuring the absorbance at wavelengths of 595 nm and 650 nm. The values, obtained by subtracting the absorbance at a wavelength of 650 nm from that of 595 nm, were regarded as indexes of cell growth rates, which were relatively evaluated by regarding the value, as a control, obtained with KB2-HI medium free of ascorbic acid 2-glucoside as 100%.

[1] = pH of aqueous solutions of compositions; format: physicochemical; conditions: 2 g (d.s.b.) dissolved in 20 mL refined water; ratio by mass (anhydrous crystalline sodium salt):(anhydrous crystal)
ZO-1 = assay: TJ-related protein ZO-1 in NHEK cells (Western); format: cell-based, human; conditions: 3 days, CaCl2 positive control = 100%, no addition 38%
Experimental: The following experiment was conducted to examine the effect of ascorbic acid 2-glucoside on the production of TJ-related proteins that constitute cell-cell adhesion structures by focusing on occludin and ZO-1 that are focused on as TJ-related proteins known to exist in a granular layer of epidermis: As a model for typical normal human epidermal cells, NHEK cells were suspended in EpiLife medium (pH 7.4); inoculated to 12-well microplates at a cell density of 1×10^5 cells/well; cultured overnight under the conditions of 37° C. and 5% v/v CO2; and further cultured for three days under the conditions of 37° C. and 5% v/v CO2 after adding either CaCl2 as a positive control to each well to give a final concentration of 0.5 mM, or “AA2G”, a product name of a particulate composition containing anhydrous crystalline ascorbic acid 2-glucoside, commercialized by Hayashibara Co., Ltd., Okayama, Japan, to give a final concentration of 0.5 or 1 mM. […] A sample of 20 μg protein for each lane per each cell extract in respective wells was applied to sodium dodecyl sulfate polyacrylamide gel electrophoresis (SDS-PAGE) with 10% w/v SDS containing DTT, followed by assaying the concentration of occludin or ZO-1 in each cell extract with “Luminate Western HRP Substrates”, a product name of a premixed, ready-to-use chemiluminescent detection reagent using an internal standard “α-Tubulin”, commercialized by Merck KGaA, Darmstadt, Germany, wherein there were used “F-11”, a product name of an anti-occludin mouse monoclonal antibody, commercialized by Santa Cruz Biotechnology, Inc., Texas, USA, or “ZO1-1A12”, a product name of a ZO-1 mouse monoclonal antibody, commercialized by Invitrogen Corporation, Calif., USA, was used as a first antibody; and “PO447”, a product name of a horseradish peroxidase (HRPO) labeled anti-mouse IgG, commercialized by DAKO Japan Inc., Tokyo, Japan, or “PO448”, a product name of an HRPO-labeled anti-rabbit IgG, commercialized by DAKO Japan Inc., Tokyo, Japan, as a secondary antibody. […]

pH [1]: 1.7
Structure (SMILES): O=C1O[C@H]([C@@H](O)CO)C(O)=C1O[C@H]1O[C@H](CO)[C@@H](O)[C@H](O)[C@H]1O [ascorbic acid 2-glucoside, 2-O-α-D-glucosyl-L-ascorbic acid]
Reduced glutathione (glutathione; 0.5 mM): 106%
Total glutathione (glutathione; 0.5 mM): 106%
Reduced glutathione (glutathione; 1.0 mM): 111%
Total glutathione (glutathione; 1.0 mM): 111%
Reduced glutathione (glutathione; 2.0 mM): 117%
Total glutathione (glutathione; 2.0 mM): 117%
Cell growth rate (NHEK cells; 100 μM, control without ascorbic acid 2-glucoside = 100%): 148%
Cell growth rate (NHEK cells; 300 μM, control = 100%): 157%
Cell growth rate (NHEK cells; 900 μM, control = 100%): 169%
ZO-1 Concentration in cell extract (ZO-1; 0.5 mM): 72%
ZO-1 Concentration in cell extract (ZO-1; 1 mM): 92%
